Tested on: PBM cells
Experiment: Cytotoxicity in uninfected PHA-stimulated human PBM cells
Conditions: read-out: Cytotoxicity (IC50) PBM cells, 6 days, cell growth

For Cc1cn([C@H]2C[C@H](N=[N+]=[N-])[C@@H](CO)O2)c(=O)[nH]c1=O [AZT, 3′-azido-3′-deoxythymidine], the IC50 was greater than 100 µM.
